From PubChem BioAssay (NCI)
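Assay format: 96-well plates, 48-hour exposure. Abbreviation: GI50, concentration required for 50% inhibition of growth. Definition used: TGI = concentration required for complete inhibition of growth.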

How the values were obtained:
Test in all cases: NCI tumour cell line growth inhibition, 48 h
SF-539 CNS = test system: SF-539 CNS
OVCAR-5 ovarian = test system: OVCAR-5 ovarian
TK-10 renal = test system: TK-10 renal
UO-31 renal = test system: UO-31 renal
MDA-MB-231 breast = test system: MDA-MB-231 breast
SK-MEL-2 melanoma = test system: SK-MEL-2 melanoma
HCT-116 colon = test system: HCT-116 colon
HOP-62 NSCLC = test system: HOP-62 NSCLC
DU-145 prostate = test system: DU-145 prostate
SR leukemia = test system: SR leukemia
T-47D breast = test system: T-47D breast
NCI-H460 lung = test system: NCI-H460 lung
CAKI-1 renal = test system: CAKI-1 renal
MOLT-4 leukemia = test system: MOLT-4 leukemia
NCI-H226 lung = test system: NCI-H226 lung
SK-MEL-5 melanoma = test system: SK-MEL-5 melanoma
SW-620 colon = test system: SW-620 colon
NCI-H522 lung = test system: NCI-H522 lung
LOX IMVI melanoma = test system: LOX IMVI melanoma
ACHN renal = test system: ACHN renal
HOP-92 NSCLC = test system: HOP-92 NSCLC
HT29 colon = test system: HT29 colon
EKVX NSCLC = test system: EKVX NSCLC
HCT-15 colon = test system: HCT-15 colon
IGROV1 ovarian = test system: IGROV1 ovarian
SNB-19 CNS = test system: SNB-19 CNS
OVCAR-4 ovarian = test system: OVCAR-4 ovarian
UACC-62 melanoma = test system: UACC-62 melanoma
U251 CNS = test system: U251 CNS
K-562 leukemia = test system: K-562 leukemia
RPMI-8226 leukemia = test system: RPMI-8226 leukemia
SN12C renal = test system: SN12C renal
M14 melanoma = test system: M14 melanoma
KM12 colon = test system: KM12 colon
NCI-H23 lung = test system: NCI-H23 lung
PC-3 prostate = test system: PC-3 prostate
COLO 205 colon = test system: COLO 205 colon
CCRF-CEM leukemia = test system: CCRF-CEM leukemia
MALME-3M melanoma = test system: MALME-3M melanoma
NCI/ADR-RES ovarian = test system: NCI/ADR-RES ovarian
A549 NSCLC = test system: A549 NSCLC
HS 578T breast = test system: HS 578T breast
HCC-2998 colon = test system: HCC-2998 colon
SK-MEL-28 melanoma = test system: SK-MEL-28 melanoma
BT-549 breast = test system: BT-549 breast
MDA-MB-435 = test system: MDA-MB-435
MCF7 breast = test system: MCF7 breast
OVCAR-8 ovarian = test system: OVCAR-8 ovarian
SF-268 CNS = test system: SF-268 CNS
OVCAR-3 ovarian = test system: OVCAR-3 ovarian
UACC-257 melanoma = test system: UACC-257 melanoma
786-0 renal = test system: 786-0 renal
SK-OV-3 ovarian = test system: SK-OV-3 ovarian
RXF 393 renal = test system: RXF 393 renal
HL-60(TB) leukemia = test system: HL-60(TB) leukemia
SF-295 CNS = test system: SF-295 CNS
SNB-75 CNS = test system: SNB-75 CNS

`C=C1C(=O)O[C@H]2[C@H]1CC/C(COC(=O)CCSSCCC(=O)OC/C1=C/CC[C@@]3(C)O[C@H]3[C@H]3OC(=O)C(=C)[C@@H]3CC1)=C\CC[C@@]1(C)O[C@@H]21` showed a GI50 (SF-539 CNS) of 1.5 µM, a TGI (SF-539 CNS) of 2.91 µM and a GI50 (OVCAR-5 ovarian) of 1.59 µM. The TGI (OVCAR-5 ovarian) was 3.16 µM, the GI50 (TK-10 renal) was 1.62 µM and the TGI (TK-10 renal) was 3.19 µM. For the same compound, the GI50 (UO-31 renal) was 1.08 µM, the TGI (UO-31 renal) was 2.28 µM and the GI50 (MDA-MB-231 breast) was 1.23 µM. The TGI (MDA-MB-231 breast) was 2.66 µM, the GI50 (SK-MEL-2 melanoma) was 1.93 µM and the TGI (SK-MEL-2 melanoma) was 4.16 µM. For the same compound, the GI50 (HCT-116 colon) was 0.33 µM, the TGI (HCT-116 colon) was 1.24 µM and the GI50 (HOP-62 NSCLC) was 1.98 µM. It also gave a TGI (HOP-62 NSCLC) of 4.64 µM, a GI50 (DU-145 prostate) of 1.3 µM and a TGI (DU-145 prostate) of 2.57 µM. It also gave a GI50 (SR leukemia) of 0.308 µM, a TGI (SR leukemia) of 2.77 µM and a GI50 (T-47D breast) of 1.2 µM. It also gave a TGI (T-47D breast) of 4.01 µM, a GI50 (NCI-H460 lung) of 1.59 µM and a TGI (NCI-H460 lung) of 3.34 µM. For the same compound, the GI50 (CAKI-1 renal) was 1.28 µM, the TGI (CAKI-1 renal) was 2.54 µM and the GI50 (MOLT-4 leukemia) was 0.437 µM. The TGI (MOLT-4 leukemia) was 2.61 µM, the GI50 (NCI-H226 lung) was 1.6 µM and the TGI (NCI-H226 lung) was 3.34 µM. The GI50 (SK-MEL-5 melanoma) was 1.44 µM, the TGI (SK-MEL-5 melanoma) was 2.78 µM and the GI50 (SW-620 colon) was 0.458 µM. For the same compound, the TGI (SW-620 colon) was 1.9 µM, the GI50 (NCI-H522 lung) was 0.688 µM and the TGI (NCI-H522 lung) was 2.27 µM. The GI50 (LOX IMVI melanoma) was 1.6 µM, the TGI (LOX IMVI melanoma) was 3.12 µM and the GI50 (ACHN renal) was 0.897 µM. The TGI (ACHN renal) was 2.11 µM, the GI50 (HOP-92 NSCLC) was 1.02 µM and the TGI (HOP-92 NSCLC) was 2.54 µM. For the same compound, the GI50 (HT29 colon) was 0.819 µM, the TGI (HT29 colon) was 2.39 µM and the GI50 (EKVX NSCLC) was 1.61 µM. It also gave a TGI (EKVX NSCLC) of 3.47 µM, a GI50 (HCT-15 colon) of 0.429 µM and a TGI (HCT-15 colon) of 1.76 µM. The GI50 (IGROV1 ovarian) was 1.19 µM, the TGI (IGROV1 ovarian) was 2.66 µM and the GI50 (SNB-19 CNS) was 1.49 µM. It also gave a TGI (SNB-19 CNS) of 3.16 µM, a GI50 (OVCAR-4 ovarian) of 1.52 µM and a TGI (OVCAR-4 ovarian) of 3.12 µM. The GI50 (UACC-62 melanoma) was 1.56 µM, the TGI (UACC-62 melanoma) was 3.16 µM and the GI50 (U251 CNS) was 1.41 µM. The TGI (U251 CNS) was 2.86 µM, the GI50 (K-562 leukemia) was 0.465 µM and the TGI (K-562 leukemia) was 2.85 µM. The GI50 (RPMI-8226 leukemia) was 1.06 µM, the TGI (RPMI-8226 leukemia) was 3.9 µM and the GI50 (SN12C renal) was 1.14 µM. For the same compound, the TGI (SN12C renal) was 2.58 µM, the GI50 (M14 melanoma) was 1.34 µM and the TGI (M14 melanoma) was 2.88 µM. The GI50 (KM12 colon) was 1.83 µM, the TGI (KM12 colon) was 3.69 µM and the GI50 (NCI-H23 lung) was 1.73 µM. The TGI (NCI-H23 lung) was 3.72 µM, the GI50 (PC-3 prostate) was 1.33 µM and the TGI (PC-3 prostate) was 2.9 µM. For the same compound, the GI50 (COLO 205 colon) was 1.16 µM, the TGI (COLO 205 colon) was 2.99 µM and the GI50 (CCRF-CEM leukemia) was 0.225 µM. It also gave a TGI (CCRF-CEM leukemia) of 1.19 µM, a GI50 (MALME-3M melanoma) of 1.08 µM and a TGI (MALME-3M melanoma) of 2.54 µM. The GI50 (NCI/ADR-RES ovarian) was 2.86 µM, the TGI (NCI/ADR-RES ovarian) was 10.2 µM and the GI50 (A549 NSCLC) was 1.99 µM. For the same compound, the TGI (A549 NSCLC) was 4.27 µM, the GI50 (HS 578T breast) was 1.95 µM and the TGI (HS 578T breast) was 7.45 µM. It also gave a GI50 (HCC-2998 colon) of 1.98 µM, a TGI (HCC-2998 colon) of 3.93 µM and a GI50 (SK-MEL-28 melanoma) of 1.49 µM. For the same compound, the TGI (SK-MEL-28 melanoma) was 2.95 µM, the GI50 (BT-549 breast) was 1.1 µM and the TGI (BT-549 breast) was 2.33 µM. For the same compound, the GI50 (MDA-MB-435) was 1.4 µM, the TGI (MDA-MB-435) was 3.07 µM and the GI50 (MCF7 breast) was 0.426 µM. For the same compound, the TGI (MCF7 breast) was 2.32 µM, the GI50 (OVCAR-8 ovarian) was 1.26 µM and the TGI (OVCAR-8 ovarian) was 3.02 µM. The GI50 (SF-268 CNS) was 1.46 µM, the TGI (SF-268 CNS) was 3.08 µM and the GI50 (OVCAR-3 ovarian) was 0.65 µM. It also gave a TGI (OVCAR-3 ovarian) of 1.95 µM, a GI50 (UACC-257 melanoma) of 1.6 µM and a TGI (UACC-257 melanoma) of 3.43 µM. For the same compound, the GI50 (786-0 renal) was 1.28 µM, the TGI (786-0 renal) was 2.6 µM and the GI50 (SK-OV-3 ovarian) was 6.67 µM. It also gave a TGI (SK-OV-3 ovarian) of 19 µM, a GI50 (RXF 393 renal) of 0.247 µM and a TGI (RXF 393 renal) of 0.98 µM. The GI50 (HL-60(TB) leukemia) was 0.448 µM, the TGI (HL-60(TB) leukemia) was 2.19 µM and the GI50 (SF-295 CNS) was 3.5 µM. The TGI (SF-295 CNS) was 13.9 µM, the GI50 (SNB-75 CNS) was 1.8 µM and the TGI (SNB-75 CNS) was 3.48 µM.
